Laboratory results as given in ChEMBL document CHEMBL1151008, “Synthesis and evaluation of 4-5-dehydro-5-fluoroaristeromycins as S-adenosyl-L-homocysteine (AdoHcy) hydrolase inhibitors” (Bioorg Med Chem Lett, 1992).

What was measured:
Adenosylhomocysteinase = target: T1, Adenosylhomocysteinase (Rattus norvegicus, UniProt P10760); assay: Compound was tested for its inhibitory activity against recombinant rat liver S-adenosyl-homocysteine hydrolase
T1 sequence (P10760 whole entry): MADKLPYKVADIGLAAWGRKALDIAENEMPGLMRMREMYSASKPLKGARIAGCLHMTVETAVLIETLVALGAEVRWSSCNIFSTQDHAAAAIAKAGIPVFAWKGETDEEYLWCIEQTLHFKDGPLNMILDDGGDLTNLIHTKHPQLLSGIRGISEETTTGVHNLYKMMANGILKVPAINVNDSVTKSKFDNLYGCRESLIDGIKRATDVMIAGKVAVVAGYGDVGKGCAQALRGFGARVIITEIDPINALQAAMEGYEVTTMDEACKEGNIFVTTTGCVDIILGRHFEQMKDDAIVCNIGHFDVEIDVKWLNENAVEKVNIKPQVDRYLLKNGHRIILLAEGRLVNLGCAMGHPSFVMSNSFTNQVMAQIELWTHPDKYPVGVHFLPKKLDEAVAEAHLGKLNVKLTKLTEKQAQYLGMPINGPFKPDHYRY

[1] = target: T2, Adenosylhomocysteinase (Rattus norvegicus) (UniProt P10760)
T2 sequence (whole entry): T1 sequence (P10760 whole entry)
Description: (§1) Rate constant was evaluated against S-adenosyl-homocysteine hydrolase

[2] = target: T2, Adenosylhomocysteinase (Rattus norvegicus); remark: listed apart in the source
Description: as §1

| SMILES | Ki (Adenosylhomocysteinase) [nM] | k2 [1] [min⁻¹] | k2 [2] [min⁻¹] |
| --- | --- | --- | --- |
| Nc1ncnc2c1ncn2[C@@H]1O/C(=C\F)[C@@H](O)[C@H]1O | 39 | 0.082 | – |
| Nc1ncnc2c1ncn2[C@@H]1O/C(=C/F)[C@@H](O)[C@H]1O | 40 | 0.05 | – |
| Nc1ncnc2c1ncn2[C@@H]1C/C(=C/F)[C@@H](O)[C@H]1O | 112 | – | 0.031 |
| Nc1ncnc2c1ncn2[C@@H]1C/C(=C\F)[C@@H](O)[C@H]1O | 87 | 0.05 | – |
